US20070043049A1, “Substituted heterocyclic diarylamine analogues” (Neurogen Corporation, priority 2003, published 2007)
pIC50: −log10 of the molar value.

biological target: T1, human capsaicin receptor (Homo sapiens, UniProt Q8NER1); assay: Calcium mobilization assay, determination of antagonist activity (Example 6); type: cell-based; settings: 50% decrease in fluorescence response of cells expressing human capsaicin receptor exposed to capsaicin
T1 construct: pBK-CMV expression construct encoding the full length human capsaicin receptor; expressed in transfected cells
Summary of the method: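 HEK293 cells stably expressing full-length human capsaicin receptor, Fluo-3 AM loaded, preincubated with compound 0.5–6 h at room temperature in KRH buffer pH 7.4. Challenged with capsaicin at its EC50; FLIPR fluorescence read. IC50 is concentration halving the capsaicin-induced calcium response.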

T1 sequence (Q8NER1 whole entry): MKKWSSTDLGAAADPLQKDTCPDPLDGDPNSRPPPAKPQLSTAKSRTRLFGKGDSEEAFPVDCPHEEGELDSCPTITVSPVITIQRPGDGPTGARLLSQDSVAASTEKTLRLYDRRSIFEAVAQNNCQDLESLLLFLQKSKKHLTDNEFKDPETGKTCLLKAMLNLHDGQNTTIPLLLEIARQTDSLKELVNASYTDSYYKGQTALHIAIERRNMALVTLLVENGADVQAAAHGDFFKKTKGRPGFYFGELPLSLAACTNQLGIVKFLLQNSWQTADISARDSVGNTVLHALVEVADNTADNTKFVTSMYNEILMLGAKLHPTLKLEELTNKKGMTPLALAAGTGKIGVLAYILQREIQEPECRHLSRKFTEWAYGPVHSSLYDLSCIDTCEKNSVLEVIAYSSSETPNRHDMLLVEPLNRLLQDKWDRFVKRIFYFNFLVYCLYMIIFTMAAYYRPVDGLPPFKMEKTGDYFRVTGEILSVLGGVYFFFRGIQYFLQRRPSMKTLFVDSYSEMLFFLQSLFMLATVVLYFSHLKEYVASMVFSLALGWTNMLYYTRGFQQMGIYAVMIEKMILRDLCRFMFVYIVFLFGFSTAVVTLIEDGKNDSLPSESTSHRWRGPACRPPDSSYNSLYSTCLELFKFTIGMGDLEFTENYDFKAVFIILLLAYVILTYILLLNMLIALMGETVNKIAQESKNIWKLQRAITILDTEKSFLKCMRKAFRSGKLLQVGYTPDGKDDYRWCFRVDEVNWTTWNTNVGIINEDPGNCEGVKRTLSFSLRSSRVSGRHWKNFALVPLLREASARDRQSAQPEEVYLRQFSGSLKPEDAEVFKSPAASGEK

pIC50 | SMILES
≥ 6.00 | CCN(CC)c1nc(Nc2cccc(F)c2)nc(N2CCN(c3ncccc3Cl)CC2)n1 [Compound 71, 6-[4-(3-Chloro-pyridin-2-yl)-piperazin-1-yl]-N,N-diethyl-N′-(3-fluoro-phenyl)-[1,3,5]triazine-2,4-diamine]
≥ 6.00 | COCc1nc(Nc2ccc(F)c(F)c2)cc(N2CCN(c3ncccc3C(F)(F)F)CC2)n1 [Compound 109, (3,4-Difluoro-phenyl)-{2-methoxymethyl-6-[4-(3-trifluoromethyl-pyridin-2-yl)-piperazin-1-yl]-pyrimidin-4-yl}-amine]
≥ 6.00 | Fc1cccc(Nc2nc(N3CCOCC3)nc(N3CCN(c4ncccc4C(F)(F)F)CC3)n2)c1 [Compound 58, (3-Fluoro-phenyl)-{4-morpholin-4-yl-6-[4-(3-trifluoromethyl-pyridin-2-yl)-piperazin-1-yl]-[1,3,5]triazin-2-yl}-amine]
≥ 6.00 | C[C@@H]1CN(c2ncccc2Cl)CCN1c1cc(Nc2ccc(C(C)(C)C)cc2)ncn1 [Compound 1, (4-tert-Butyl-phenyl)-{6-[4-(3-chloro-pyridin-2-yl)-2-methyl-piperazin-1-yl]-pyrimidin-4-yl}-amine (R)]
≥ 6.00 | C[C@@H]1CN(c2ncccc2Cl)CCN1c1nc(NCc2cccc(C(F)(F)F)c2)nc(Nc2ccc(C(F)(F)F)cc2)n1 [Compound 37, 6-[4-(3-Chloro-pyridin-2-yl)-2-methyl-piperazin-1-yl]-N-(3-trifluoromethyl-benzyl)-N′-(4-trifluoromethyl-phenyl)-[1,3,5]triazine-2,4-diamine (R)]
≥ 6.00 | C[C@H]1CN(c2ncccc2C(F)(F)F)CCN1c1nc(Nc2ccc(C(F)(F)F)cc2)nc(-c2ccc(C(F)(F)F)cc2)n1 [Compound 14, [4-[2-Methyl-4-(3-trifluoromethyl-pyridin-2-yl)-piperazin-1-yl]-6-(4-trifluoromethyl-phenyl)-[1,3,5]triazin-2-yl]-(4-trifluoromethyl-phenyl)-amine (S)]
≥ 6.00 | Fc1ccc(Nc2cc(N3CCOCC3)nc(N3CCN(c4ncccc4C(F)(F)F)CC3)n2)cc1 [Compound 105, (4-Fluoro-phenyl)-{6-morpholin-4-yl-2-[4-(3-trifluoromethyl-pyridin-2-yl)-piperazin-1-yl]-pyrimidin-4-yl}-amine]
≥ 6.00 | CC(C)CNc1nc(Nc2ccc(C(F)(C(F)(F)F)C(F)(F)F)cc2)nc(N2CCN(c3ncccc3Cl)C[C@H]2C)n1 [Compound 26, 6-[4-(3-Chloro-pyridin-2-yl)-2-methyl-piperazin-1-yl]-N-isobutyl-N′-[4-(1,2,2,2-tetrafluoro-1-trifluoromethyl-ethyl)-phenyl]-[1,3,5]triazine-2,4-diamine (R)]
≥ 6.00 | FC(F)(F)c1ccc(Nc2nc(Cl)nc(N3CCN(c4ncccc4Cl)CC3)n2)cc1 [Compound 45, {4-Chloro-6-[4-(3-chloro-pyridin-2-yl)-piperazin-1-yl]-[1,3,5]triazin-2-yl}-(4-trifluoromethyl-phenyl)-amine]
≥ 6.00 | Cc1ccc(Nc2nc(N3CCOCC3)cc(N3CCN(c4ncccc4C(F)(F)F)CC3)n2)cc1 [Compound 87, {4-Morpholin-4-yl-6-[4-(3-trifluoromethyl-pyridin-2-yl)-piperazin-1-yl]-pyrimidin-2-yl}-p-tolyl-amine]
≥ 6.00 | CCC(C)Nc1nc(Nc2ccc(C(F)(C(F)(F)F)C(F)(F)F)cc2)nc(N2CCN(c3ncccc3Cl)C[C@H]2C)n1 (stereo partly drawn) [Compound 27, N-sec-Butyl-6-[4-(3-chloro-pyridin-2-yl)-2-methyl-piperazin-1-yl]-N′-[4-(1,2,2,2-tetrafluoro-1-trifluoromethyl-ethyl)-phenyl]-[1,3,5]triazine-2,4-diamine (R)]
≥ 6.00 | CCN(c1nc(Nc2cccc(F)c2)nc(N2CCN(c3ncccc3Cl)CC2)n1)C(C)C [Compound 80, 6-[4-(3-Chloro-pyridin-2-yl)-piperazin-1-yl]-N-ethyl-N′-(3-fluoro-phenyl)-N-isopropyl-[1,3,5]triazine-2,4-diamine]
≥ 6.00 | Clc1cccc(Nc2nc(N3CCOCC3)nc(N3CCN(c4ncccc4Cl)CC3)n2)c1 [Compound 66, (3-Chloro-phenyl)-{4-[4-(3-chloro-pyridin-2-yl)-piperazin-1-yl]-6-morpholin-4-yl-[1,3,5]triazin-2-yl}-amine]
≥ 6.00 | C[C@@H]1CN(c2ncccc2Cl)CCN1c1nc(Nc2ccc(C(F)(F)F)cc2)nc(N(C)C)n1 [Compound 18, 6-[4-(3-Chloro-pyridin-2-yl)-2-methyl-piperazin-1-yl]-N,N-dimethyl-N′-(4-trifluoromethyl-phenyl)-[1,3,5]triazine-2,4-diamine (R)]
≥ 6.00 | CC(C)N(C)c1nc(Nc2ccc(C(F)(F)F)cc2)nc(N2CCN(c3ncccc3Cl)C[C@H]2C)n1 [Compound 35, 6-[4-(3-Chloro-pyridin-2-yl)-2-methyl-piperazin-1-yl]-N-isopropyl-N-methyl-N′-(4-trifluoromethyl-phenyl)-[1,3,5]triazine-2,4-diamine (R)]
≥ 6.00 | Cc1ccc(Nc2nc(N3CCOCC3)nc(N3CCN(c4ncccc4C(F)(F)F)CC3)n2)cc1 [Compound 64, {4-Morpholin-4-yl-6-[4-(3-trifluoromethyl-pyridin-2-yl)-piperazin-1-yl]-[1,3,5]triazin-2-yl}-p-tolyl-amine]

The remaining lines, values behind:

SMILES | pIC50
CCCCN(C)c1nc(Nc2ccc(C(F)(F)F)cc2)nc(N2CCN(c3ncccc3Cl)C[C@H]2C)n1 [Compound 31, N-Butyl-6-[4-(3-chloro-pyridin-2-yl)-2-methyl-piperazin-1-yl]-N-methyl-N′-(4-trifluoromethyl-phenyl)-[1,3,5]triazine-2,4-diamine (R)] | ≥ 6.00
Cc1cccc(Nc2nc(N3CCOCC3)cc(N3CCN(c4ncccc4C(F)(F)F)CC3)n2)c1 [Compound 86, {4-Morpholin-4-yl-6-[4-(3-trifluoromethyl-pyridin-2-yl)-piperazin-1-yl]-pyrimidin-2-yl}-m-tolyl-amine] | ≥ 6.00
FC(F)(F)c1ccc(Nc2nc(N3CCOCC3)nc(N3CCN(c4ncccc4C(F)(F)F)CC3)n2)cc1 [Compound 23, {4-Morpholin-4-yl-6-[4-(3-trifluoromethyl-pyridin-2-yl)-piperazin-1-yl]-[1,3,5]triazin-2-yl}-(4-trifluoromethyl-phenyl)-amine] | ≥ 6.00
CC(C)N(C)c1nc(Nc2ccccc2)nc(N2CCN(c3ncccc3Cl)CC2)n1 [Compound 54, 6-[4-(3-Chloro-pyridin-2-yl)-piperazin-1-yl]-N-isopropyl-N-methyl-N′-phenyl-[1,3,5]triazine-2,4-diamine] | ≥ 6.00
CC(C)N(C)c1nc(Nc2cccc(F)c2)nc(N2CCN(c3ncccc3Cl)CC2)n1 [Compound 79, 6-[4-(3-Chloro-pyridin-2-yl)-piperazin-1-yl]-N-(3-fluoro-phenyl)-N′-isopropyl-N′-methyl-[1,3,5]triazine-2,4-diamine] | ≥ 6.00
CCN(CC)c1nc(Nc2ccc(F)c(F)c2)nc(N2CCN(c3ncccc3Cl)C[C@H]2C)n1 [Compound 100, 6-[4-(3-Chloro-pyridin-2-yl)-2-methyl-piperazin-1-yl]-N-(3,4-difluoro-phenyl)-N′,N′-diethyl-[1,3,5]triazine-2,4-diamine (R)] | ≥ 6.00
CC(C)N(C)c1nc(Nc2ccc(C(F)(F)F)cc2)nc(N2CCN(c3ncccc3Cl)CC2)n1 [Compound 49, 6-[4-(3-Chloro-pyridin-2-yl)-piperazin-1-yl]-N-isopropyl-N-methyl-N′-(4-trifluoromethyl-phenyl)-[1,3,5]triazine-2,4-diamine] | ≥ 6.00
C[C@@H]1CN(c2ncccc2Cl)CCN1c1nc(NCCCc2ccccc2)nc(Nc2ccc(C(F)(F)F)cc2)n1 [Compound 41, 6-[4-(3-Chloro-pyridin-2-yl)-2-methyl-piperazin-1-yl]-N-(3-phenyl-propyl)-N′-(4-trifluoromethyl-phenyl)-[1,3,5]triazine-2,4-diamine (R)] | ≥ 6.00
C[C@@H]1CN(c2ncccc2Cl)CCN1c1nc(Cl)nc(Nc2ccc(C(F)(C(F)(F)F)C(F)(F)F)cc2)n1 [Compound 24, {4-Chloro-6-[4-(3-chloro-pyridin-2-yl)-2-methyl-piperazin-1-yl]-[1,3,5]triazin-2-yl}-[4-(1,2,2,2-tetrafluoro-1-trifluoromethyl-ethyl)-phenyl]-amine (R)] | ≥ 6.00
Cc1ccc(Nc2cc(N3CCOCC3)nc(N3CCN(c4ncccc4C(F)(F)F)CC3)n2)cc1 [Compound 106, {6-Morpholin-4-yl-2-[4-(3-trifluoromethyl-pyridin-2-yl)-piperazin-1-yl]-pyrimidin-4-yl}-p-tolyl-amine] | ≥ 6.00
FC(F)(F)c1ccc(Nc2nc(N3CCN(c4ncccc4Cl)CC3)nc(N3CCN(c4ncccc4Cl)CC3)n2)cc1 [Compound 56, {4,6-Bis-[4-(3-chloro-pyridin-2-yl)-piperazin-1-yl]-[1,3,5]triazin-2-yl}-(4-trifluoromethyl-phenyl)-amine] | ≥ 6.00
C[C@@H]1CN(c2ncccc2Cl)CCN1c1nc(Nc2ccc(C(C)(C)C)cc2)nc(OCc2ccccc2C(F)(F)F)n1 [Compound 5, (4-tert-Butyl-phenyl)-[4-[4-(3-chloro-pyridin-2-yl)-2-methyl-piperazin-1-yl]-6-(2-trifluoromethyl-benzyloxy)-[1,3,5]triazin-2-yl]-amine (R)] | ≥ 6.00
CCN(CC)c1nc(Nc2cccc(Cl)c2)nc(N2CCN(c3ncccc3Cl)CC2)n1 [Compound 92, N-(3-Chloro-phenyl)-6-[4-(3-chloro-pyridin-2-yl)-piperazin-1-yl]-N′,N′-diethyl-[1,3,5]triazine-2,4-diamine] | ≥ 6.00
COc1ccc(-c2nc(Nc3ccc(C(F)(F)F)cc3)nc(N3CCN(c4ncccc4Cl)C[C@H]3C)n2)c(OC)c1 [Compound 116, [4-[4-(3-Chloro-pyridin-2-yl)-2-methyl-piperazin-1-yl]-6-(2,4-dimethoxy-phenyl)-[1,3,5]triazin-2-yl]-(4-trifluoromethyl-phenyl)-amine] | ≥ 6.00
